Test: recombinant barcode read abundance after kanamycin selection (control-corrected) (log10(CPM+1)); higher = more efficient recombination; sequences stand for … in AGTGCAGAGAAAATCGGCCAGTTTTCTCTGCCTGCAGTCCGCATGCCGT…AGATTTATGCAGCGGACTGCCTTTCTCCCAAAGTGATAAACCGGACAGTATCATGGACCGGTTTTCCCGGTAATCCGTATTTGCAAGGTTGGTTTCACT; site = the 11-nt target
How it was run: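 Oligos holding a promoter, target, barcode and the J23119-driven first 104 bases of the bridge RNA were Gibson-cloned into a vector that supplied the other 73 bp plus a T7-inducible recombinase. This library was co-electroporated with a donor plasmid into E. coli. Two replicates went on chloramphenicol/ampicillin LB agar (control) and two on chloramphenicol/ampicillin/kanamycin with 0.1 mM IPTG. Recombination efficiency is read from averaged, control-corrected barcode counts per million at recombinant junctions, reported as log10(CPM+1).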
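Further: IS621 recombinase and bridge RNA in Escherichia coli cells.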

Sequence | recombinant barcode read abundance (log10)
TAGAAGTCTTGGGTTCTAACCTGTTGCAG (site TAGATGTCTCC) | 0.0783
TAGAATCCTTGGGTTCTAACCTGTTGCAG (site TAGAATCCTAT) | 0.0897
TAGAATCCTTGGGTTCTAACCTGTTGCAG (site TAGAATCCTCT) | 0.718
TAGAATCCTTGGGTTCTAACCTGTTGCAG (site TAGAATCCTGT) | 0.0644
TAGAATCCTTGGGTTCTAACCTGTTGCAG (site TAGAATCCTTT) | 0.072
TAGACATCTTGGGTTCTAACCTGTTGCGT (site CGCTTTACTCG) | 0.125
TAGACATCTTGGGTTCTAACCTGTTGCGT (site TAGACATCTAC) | 1.65
TAGACTACTTGGGTTCTAACCTGTTGCTA (site TAGACTACTAA) | 0.198
TAGACTACTTGGGTTCTAACCTGTTGCTA (site TAGACTACTCA) | 0.111
TAGACTACTTGGGTTCTAACCTGTTGCTA (site TAGACTACTGA) | 0.0863
TAGACTACTTGGGTTCTAACCTGTTGCTA (site TAGACTACTTA) | 0.268
TAGACTCCTTGGGTTCTAACCTGTTGCCA (site ACTTGAGCTAT) | 0.336
TAGACTCCTTGGGTTCTAACCTGTTGCCA (site TAGACTCCTTG) | 0.182
TAGAGCTCTTGGGTTCTAACCTGTTGCGT (site TAGAACTCTAC) | 0.246
TAGAGCTCTTGGGTTCTAACCTGTTGCGT (site TAGAGCTCTAC) | 1.25
TAGATGTCTTGGGTTCTAACCTGTTGCGG (site TAGAAGTCTCT) | 0.0755
TAGATGTCTTGGGTTCTAACCTGTTGCGG (site TAGATGTCTCC) | 2.43
TAGCAATCTTGGGTTCTAACCTGTTGCTA (site GTCGTTACTAG) | 0.0938
TAGCAATCTTGGGTTCTAACCTGTTGCTA (site TAGCAATCTTA) | 0.0837
TAGCACACTTGGGTTCTAACCTGTTGCGG (site TAGCACACTCC) | 1.21
TAGCACACTTGGGTTCTAACCTGTTGCGG (site TAGCCCACTCC) | 0.112
TAGCACACTTGGGTTCTAACCTGTTGCGG (site TAGCGCACTCC) | 0.291

Sequence | recombinant barcode read abundance (log10)
TAGCACACTTGGGTTCTAACCTGTTGCGG (site TAGCTCACTCC) | 0.00842
TAGCATACTTGGGTTCTAACCTGTTGCCA (site TAGCATACTAG) | 0.445
TAGCATACTTGGGTTCTAACCTGTTGCCA (site TAGCATACTCG) | 0.0183
TAGCATACTTGGGTTCTAACCTGTTGCCA (site TAGCATACTGG) | 0.359
TAGCATACTTGGGTTCTAACCTGTTGCCA (site TAGCATACTTG) | 0.529
TAGCCATCTTGGGTTCTAACCTGTTGCCT (site TAACCATCTAG) | 0.0247
TAGCCATCTTGGGTTCTAACCTGTTGCCT (site TACCCATCTAG) | 0.166
TAGCCATCTTGGGTTCTAACCTGTTGCCT (site TAGCCATCTAG) | 0.121
TAGCCATCTTGGGTTCTAACCTGTTGCCT (site TATCCATCTAG) | 0.0171
TAGCCCTCTTGGGTTCTAACCTGTTGCAA (site ACAGTACCTCA) | 0.202
TAGCCCTCTTGGGTTCTAACCTGTTGCAA (site TAGCCCTCTTT) | 2.02
TAGCCCTCTTGGGTTCTAACCTGTTGCCG (site TAGCCCTCTCG) | 1.82
TAGCCCTCTTGGGTTCTAACCTGTTGCCG (site TAGTCCGCTCG) | 0.023
TAGCCGGCTTGGGTTCTAACCTGTTGCAG (site GAGCCGACTCT) | 0.385
TAGCCGGCTTGGGTTCTAACCTGTTGCAG (site TAGCCGGCTCT) | 1.06
TAGCCGGCTTGGGTTCTAACCTGTTGCCT (site TAGCCGGCTAA) | 0.264
TAGCCGGCTTGGGTTCTAACCTGTTGCCT (site TAGCCGGCTAG) | 0.907
TAGCCGGCTTGGGTTCTAACCTGTTGCTT (site TAGCCGGCTAA) | 0.358
TAGCCGGCTTGGGTTCTAACCTGTTGCTT (site TAGCCGGCTAG) | 0.386
TAGCCTTCTTGGGTTCTAACCTGTTGCCT (site TAGCCTTCTAG) | 0.572
TAGCCTTCTTGGGTTCTAACCTGTTGCCT (site TCGCCTTCTAG) | 0.204
TAGCCTTCTTGGGTTCTAACCTGTTGCCT (site TGGCCTTCTAG) | 0.0192

Sequence | recombinant barcode read abundance (log10)
TAGCCTTCTTGGGTTCTAACCTGTTGCCT (site TTGCCTTCTAG) | 0.0659
TAGCGGACTTGGGTTCTAACCTGTTGCAT (site TAGCGGACTAT) | 0.992
TAGCGGACTTGGGTTCTAACCTGTTGCAT (site TAGCGGTCTAG) | 0.0826
TAGCGGTCTTGGGTTCTAACCTGTTGCCT (site TAGCGGACTAT) | 0.0756
TAGCGGTCTTGGGTTCTAACCTGTTGCCT (site TAGCGGTCTAG) | 1.46
TAGCGTACTTGGGTTCTAACCTGTTGCGG (site TAGCGTACTAC) | 0.107
TAGCGTACTTGGGTTCTAACCTGTTGCGG (site TAGCGTACTCC) | 1.79
TAGCTCACTTGGGTTCTAACCTGTTGCGG (site TAGCACACTCC) | 0.0805
TAGCTCACTTGGGTTCTAACCTGTTGCGG (site TAGCCCACTCC) | 0.581
TAGCTCACTTGGGTTCTAACCTGTTGCGG (site TAGCGCACTCC) | 0.791
TAGCTCACTTGGGTTCTAACCTGTTGCGG (site TAGCTCACTCC) | 1.3
TAGCTCCCTTGGGTTCTAACCTGTTGCCG (site TAGCTCCCTAG) | 0.475
TAGCTCCCTTGGGTTCTAACCTGTTGCCG (site TAGCTCCCTCG) | 1.43
TAGCTCCCTTGGGTTCTAACCTGTTGCCG (site TAGCTCCCTGG) | 0.238
TAGCTCCCTTGGGTTCTAACCTGTTGCCG (site TAGCTCCCTTG) | 0.379
TAGCTCCCTTGGGTTCTAACCTGTTGCCT (site TAGCTCCCTAG) | 1.21
TAGCTCCCTTGGGTTCTAACCTGTTGCCT (site TAGCTCCCTCG) | 0.0637
TAGCTCCCTTGGGTTCTAACCTGTTGCCT (site TAGCTCCCTGG) | 0.105
TAGCTCCCTTGGGTTCTAACCTGTTGCCT (site TAGCTCCCTTG) | 0.016
TAGCTGACTTGGGTTCTAACCTGTTGCCT (site TAGCAGACTAG) | 1.14
TAGCTGACTTGGGTTCTAACCTGTTGCCT (site TAGCCGACTAG) | 0.624
TAGCTGACTTGGGTTCTAACCTGTTGCCT (site TAGCGGACTAG) | 0.194

Sequence | recombinant barcode read abundance (log10)
TAGCTGACTTGGGTTCTAACCTGTTGCCT (site TAGCTGACTAG) | 1.28
TAGGAACCTTGGGTTCTAACCTGTTGCGT (site GAGGAGCCTAC) | 0.022
TAGGAACCTTGGGTTCTAACCTGTTGCGT (site TAGGAACCTAC) | 3.35
TAGGAAGCTTGGGTTCTAACCTGTTGCGA (site TAGAAAGCTTG) | 0.108
TAGGAAGCTTGGGTTCTAACCTGTTGCGA (site TAGGAAGCTTC) | 2.34
TAGGACTCTTGGGTTCTAACCTGTTGCAT (site CCTCGTCCTGG) | 0.0204
TAGGACTCTTGGGTTCTAACCTGTTGCAT (site TAGGACTCTAT) | 1.79
TAGGAGACTTGGGTTCTAACCTGTTGCCC (site CAGGAGACTAG) | 0.0355
TAGGAGACTTGGGTTCTAACCTGTTGCCC (site TAGGAGACTGG) | 1.99
TAGGAGACTTGGGTTCTAACCTGTTGCGT (site TAGGAAACTAC) | 1.42
TAGGAGACTTGGGTTCTAACCTGTTGCGT (site TAGGACACTAC) | 0.642
TAGGAGACTTGGGTTCTAACCTGTTGCGT (site TAGGAGACTAC) | 2.56
TAGGAGACTTGGGTTCTAACCTGTTGCGT (site TAGGATACTAC) | 0.233
TAGGAGCCTTGGGTTCTAACCTGTTGCGT (site TACGAACCTAC) | 0.323
TAGGAGCCTTGGGTTCTAACCTGTTGCGT (site TAGGAGCCTAC) | 3.27
TAGGCCACTTGGGTTCTAACCTGTTGCCT (site TAGGCCACTAA) | 0.0204
TAGGCCACTTGGGTTCTAACCTGTTGCCT (site TAGGCCACTAC) | 0.122
TAGGCCACTTGGGTTCTAACCTGTTGCCT (site TAGGCCACTAG) | 0.592
TAGGCCACTTGGGTTCTAACCTGTTGCCT (site TAGGCCACTAT) | 0
TAGGCGCCTTGGGTTCTAACCTGTTGCAT (site TAGGCGCCTAA) | 4.17
